Experimental findings from article PMC10255231, “Cytotoxic, Anti-Hemolytic, and Antioxidant Activities of Ruta chalepensis L. (Rutaceae) Extract, Fractions, and Isolated Compounds” (Plants, 2023) are described below.

Molecules are shown by their SMILES. In brackets after ≈: the same amount, converted by molar mass.

In assay [1] the test system is human red blood cells. The assay can be described thus: Hemolytic activity test. In kind it is cell-based. Conditions: human erythrocytes, PBS pH 7.4; for IC50: Erythrocyte. As to the method: The hemolytic activity was assessed using the hemolysis test at treatment concentrations ranged from 7.81 µg/mL to 1000 µg/mL in PBS at pH 7.4. IC50 values were defined as the sample concentration needed to cause 50% hemolysis of human red blood cells. The percentage of hemolysis was determined by measuring ODs at 540 nm as follows (4):(4) Hemolysis %=OD540nm Treatment/OD540nm Positive control×100

Another assay has as its system HEP-G2 cells. The assay can be described thus: MTT cell viability assay, HEP-G2 tumor cells. It counts as cell-based. As to conditions: Homo sapiens, HepG2, 72 h. An excerpt:
(§1) The human hepatocellular carcinoma cell line HEP-G2 (ATCC HB-8065) and the monkey kidney epithelial cell line VERO (ATCC CCL-81) were obtained from the Laboratory of Immunology and Virology in FCB at UANL (FCB-UANL), México, and cultured in DMEM, supplemented with 10% heat-inactivated FBS, 2% NaHCO3, and HEPES [57]. Murine lymphoma L5178Y-R cells (ATCC CRL-1722) and human peripheral blood mononuclear cells (PBMC) were maintained in RPMI-1640 culture medium, supplemented with 10% heat-inactivated FBS and 1% antibiotic/antimycotic solution [26]. Assays were conducted with adherent HEP-G2 and VERO cells on flat-bottom microplates and non-adherent L5178Y-R and PBMC cells were evaluated on round-bottom microplates.
(§2) Cells were cultured at 37 °C and 5% CO2 in 95% air in a humidified incubator, in the presence or absence of treatments for 72 h. After which they were incubated with MTT (0.5 mg/mL final concentration) at 37 °C in 5% CO2 for 3 h and supernatants were discarded after the incubation period. Resulting formazan crystals were dissolved in DMSO, and optical densities (OD) were measured at 540 nm, using a microplate reader (Molecular Devices Corporation in Palo Alto, CA). In addition, […] (IC50) values were determined after 72 h incubation with treatments at concentrations ranging from 7.81 µg/mL to 1000 µg/mL and ODs were measured at 570 nm on a microplate reader (Molecular Devices Corporation). The positive control consisted of 0.05 µg/mL VS and the negative control was culture medium alone. All treatments were diluted in DMSO to a final well test concentration not exceeding 0.5% (v/v). Cell viability was determined using the following Formula (2):(2) Cell viability %=OD570nmTreatment/OD570nmNegative control×100
To determine the selectivity index (SI) for each treatment, we divided the IC50 of […]. SI was assessed for adherent cells (non-tumor/tumor) and for non-adherent cells (non-tumor/tumor). […] SI was calculated using the following Formula (3):(3) SI=IC50 Normal Cells/IC50 Tumor Cells
A general note: Tetrazolium assays rely on reduction of a dye to a coloured formazan, in cell work by metabolically active cells.

Another assay relates to VERO cells. The assay can be described thus: MTT cell viability assay, normal VERO cells. It counts as cell-based, African green monkey. As to conditions: Chlorocebus sabaeus, 72 h.
Text: as §1, §2

In assay [2] the test system is human red blood cells. The assay is described as follows: Anti-hemolytic activity test (AAPH inhibition). It counts as cell-based. As to conditions: human erythrocytes, AAPH 150 mM, PBS pH 7.4. On the procedure: The AAPH inhibition test was used to determine the anti-hemolytic activity, as previously reported. Hemolysis was induced by the AAPH radical (150 mM in PBS) as a positive control. Treatment concentrations ranged from 7.81 µg/mL to 1000 µg/mL in PBS at pH 7.4 plus AAPH. IC50 values were defined as the sample concentration needed to cause 50% hemolysis of human red blood cells. The anti-hemolytic activity was evaluated using the following Formula (5):(5) % Anti−hemolytic Activity=1−OD570nm Treatment/OD570nm Positive control×100

A further assay has as its system PBMC. The assay is described as follows: MTT cell viability assay, normal PBMC. Conditions: Homo sapiens, 72 h, normal cells. It counts as cell-based.
Text: as §1, §2

Another assay deals with L5178Y-R cells. The assay is described as follows: MTT cell viability assay, L5178Y-R lymphoma cells. In kind it is cell-based, murine. As to conditions: Mus musculus, 72 h, tumor cells.
Text: as §1
Cells were cultured at 37 °C and 5% CO2 in 95% air in a humidified incubator, in the presence or absence of treatments for 72 h. […] Resulting formazan crystals were dissolved in DMSO, and optical densities (OD) were measured at 540 nm, using a microplate reader (Molecular Devices Corporation in Palo Alto, CA). […] Cell viability was determined using the following Formula (2):(2) Cell viability %=OD570nmTreatment/OD570nmNegative control×100
To determine the selectivity index (SI) for each treatment, we divided the IC50 of […]. SI was assessed for adherent cells (non-tumor/tumor) and for non-adherent cells (non-tumor/tumor). […]

The IC50 is the point on the concentration scale where inhibition reaches its midpoint. Low values mean greater potency, high ones weaker potency. Turning to `C=CC(C)(C)c1cc2cc3ccoc3cc2oc1=O` [CHL, Chalepensin], the IC50 came to 101 ± 4.2 µg/mL (≈ 397 µM) with human red blood cells [1]; 76.2 ± 2.85 µg/mL (≈ 300 µM) in the assay with HEP-G2 cells; 387 ± 9.24 µg/mL (≈ 1520 µM) in the assay with VERO cells; 180 ± 4.76 µg/mL (≈ 707 µM) in the assay on human red blood cells [2] (Erythrocyte); 226 ± 5.67 µg/mL (≈ 891 µM) with PBMC. Also, the “Hemolytic Activity IC50” value in the assay on human red blood cells [1] is reported as “did not show significant hemolytic activity”.

For `Cn1c(-c2ccc3c(c2)OCO3)cc(=O)c2ccccc21` [GRV, Graveoline], the IC50 is 57.6 ± 11.3 µg/mL (≈ 206 µM) in the assay on human red blood cells [1]; less than 50 µg/mL in the assay on L5178Y-R cells; 54.6 ± 3.34 µg/mL (≈ 196 µM) in the assay on HEP-G2 cells; 179 ± 7.39 µg/mL (≈ 640 µM) in the assay with VERO cells; 159 ± 30.6 µg/mL (≈ 569 µM) in the assay with PBMC. Further, the “Anti-Hemolytic Activity IC50” value with human red blood cells [2] was “did not exhibit any anti-hemolytic activity”.

Regarding `C=CC(C)(C)c1cc2cc3c(cc2oc1=O)OC(C(C)(C)OC(C)=O)C3` (stereo not drawn) [RTM, Rutamarin], the IC50 with human red blood cells [1] is more than 1500 µg/mL; in the assay on HEP-G2 cells, 130 ± 3.68 µg/mL (≈ 364 µM); in the assay with VERO cells, 430 ± 4.07 µg/mL (≈ 1210 µM); in the assay with PBMC, 151 ± 10.1 µg/mL (≈ 424 µM). Also, the “Hemolytic Activity IC50” value with human red blood cells [1] is “did not show significant hemolytic activity”. In addition, the “Anti-Hemolytic Activity IC50” value with human red blood cells [2] is “did not exhibit any anti-hemolytic activity”.
